Patent publication US20120022057A1, “BICYCLIC COMPOUNDS AS INHIBITORS OF DIACYGLYCEROL ACYLTRANSFERASE” (Schering Corporation, priority 2009, published 2012)

Target: T1, human DGAT1 (Homo sapiens, UniProt O75907)
T1 construct: made in house; host or cells: Sf9 insect cells (microsomes)
T1 sequence (O75907 1-488): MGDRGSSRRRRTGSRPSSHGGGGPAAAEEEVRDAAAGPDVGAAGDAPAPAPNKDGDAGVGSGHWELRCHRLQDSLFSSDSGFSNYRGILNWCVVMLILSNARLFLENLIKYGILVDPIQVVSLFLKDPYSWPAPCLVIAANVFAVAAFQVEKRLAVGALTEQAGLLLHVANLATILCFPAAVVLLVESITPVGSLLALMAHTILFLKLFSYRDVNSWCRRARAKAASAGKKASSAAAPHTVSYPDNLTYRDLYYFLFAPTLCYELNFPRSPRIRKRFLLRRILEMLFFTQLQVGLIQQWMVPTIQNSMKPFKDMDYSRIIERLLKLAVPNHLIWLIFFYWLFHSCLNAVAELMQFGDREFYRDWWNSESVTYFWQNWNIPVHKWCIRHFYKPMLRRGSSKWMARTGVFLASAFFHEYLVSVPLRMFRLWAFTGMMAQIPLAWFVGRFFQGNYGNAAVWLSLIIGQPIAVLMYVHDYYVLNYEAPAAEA
Test: in vitro DGAT1 inhibition assay (microsomes, [14C]-palmitoyl-CoA, wheat germ agglutinin beads)
Assay type: biochemical
Details: human DGAT1 enzyme expressed in Sf9 insect cells, 2 hours at room temperature
Method: The assay used to determine the DGAT inhibitory activity of the inventive compounds is described below:
The in vitro assay to identify DGAT1 inhibitors uses human DGAT1 enzyme expressed in Sf9 insect cells prepared as microsomes. The reaction was initiated by the addition of the combined substrates 1,2-dioleoyl-sn-glycerol and [^14C]-palmitoyl-CoA and incubated with test compounds and microsomal membranes for 2 hours at room temperature. The assay was stopped by adding 0.5 mg wheat germ agglutinin beads in assay buffer with 1% Brij-35 and 1% 3-cholamidopropyldimethyl-ammonio-1-propane sulfonate. Plates were sealed with TopSeal and incubated for 18 hours to allow the radioactive triglyceride product to come into proximity with the bead. Plates were read on a TopCount instrument.
Percent inhibition was calculated as the percent of (test compound inhibition minus non-specific binding) relative to (total binding minus non-specific binding). IC50 values were determined by curve fitting the data to a Sigmoidal dose-response in GraphPad Prism utilizing the following equation:
Y=A+(B−A)/(1+10̂((LogIC50−X))),
where A and B are the bottom and top of the curve (highest and lowest inhibition), respectively, and X is the logarithm of concentration.

SMILES	IC50
CCCCCCNC(=O)N1CC(C)Oc2cc(-c3ccc([C@H]4CC[C@H](CC(=O)O)CC4)cc3)ccc21 (stereo partly shown) [Example C-113, 2-((1r,4r)-4-(4-(4-(hexylcarbamoyl)-2-methyl-3,4-dihydro-2H-benzo[b][1,4]oxazin-7-yl)phenyl)cyclohexyl)acetic acid]	82 nM
O=C(O)C[C@H]1CC[C@H](c2ccc(-c3ccc4c(c3)OCCN4C(=O)Nc3ccc(F)cc3C(F)(F)F)cc2)CC1 [Example C-6, 2-((1r,4r)-4-(4-(4-(4-fluoro-2-(trifluoromethyl)phenylcarbamoyl)-3,4-dihydro-2H-benzo[b][1,4]oxazin-7-yl)phenyl)cyclohexyl)acetic acid]	20 nM
CCCCCCCNC(=O)N1CC(CC)Oc2cc(-c3ccc([C@H]4CC[C@H](CC(=O)O)CC4)cc3)ccc21 (stereo partly shown) [Example C-150, 2-((1r,4r)-4-(4-(2-ethyl-4-(heptylcarbamoyl)-3,4-dihydro-2H-benzo[b][1,4]oxazin-7-yl)phenyl)cyclohexyl)acetic acid]	83 nM
CCCCCCCNC(=O)N1CC(C)Oc2cc(-c3ccc([C@H]4CC[C@H](CC(=O)O)CC4)cc3)ccc21 (stereo partly shown) [Example C-116, 2-((1r,4r)-4-(4-(4-(heptylcarbamoyl)-2-methyl-3,4-dihydro-2H-benzo[b][1,4]oxazin-7-yl)phenyl)cyclohexyl)acetic acid]	71 nM
O=C(O)C[C@H]1CC[C@H](c2ccc(-c3ccc4c(C(=O)Nc5ccccc5)ccnc4c3)cc2)CC1 [Example B-48, 2-((1r,4r)-4-(4-(4-(phenylcarbamoyl)quinolin-7-yl)phenyl)cyclohexyl)acetic acid]	83 nM
Cc1cc(C(=O)Nc2ccccc2)c2ccc(-c3ccc([C@H]4CC[C@H](CC(=O)O)CC4)cc3)cc2n1 [Example C-134, 2-((1r,4r)-4-(4-(2-methyl-4-(phenylcarbamoyl)quinolin-7-yl)phenyl)cyclohexyl)acetic acid]	28 nM
Cc1cc(C(=O)NCCCCc2ccccc2)c2ccc(-c3ccc([C@H]4CC[C@H](CC(=O)O)CC4)cc3)cc2n1 [Example C-141, 2-((1r,4r)-4-(4-(2-methyl-4-(4-phenylbutylcarbamoyl)quinolin-7-yl)phenyl)cyclohexyl)acetic acid]	15 nM
CCc1ccccc1NC(=O)N1C[C@@H](C)Oc2cc(-c3ccc([C@H]4CC[C@H](CC(=O)O)CC4)cc3)ccc21 [C-81 enantiomer A, 2-((1r,4r)-4-(4-(4-(2-ethylphenylcarbamoyl)-2-methyl-3,4-dihydro-2H-benzo[b][1,4]oxazin-7-yl)phenyl)cyclohexyl)acetic acid]	58 nM
CCCc1ccccc1NC(=O)c1ccnc2cc(-c3ccc([C@H]4CC[C@H](CC(=O)O)CC4)cc3)ccc12 [Example C-129, 2-((1r,4r)-4-(4-(4-(2-propylphenylcarbamoyl)quinolin-7-yl)phenyl)cyclohexyl)acetic acid]	94 nM
CC(C)c1ccccc1NC(=O)c1ccnc2cc(-c3ccc([C@H]4CC[C@H](CC(=O)O)CC4)cc3)ccc12 [Example C-125, 2-((1r,4r)-4-(4-(4-(2-isopropylphenylcarbamoyl)quinolin-7-yl)phenyl)cyclohexyl)acetic acid]	72 nM
Cc1cc(C(=O)NCCc2ccccc2)c2ccc(-c3ccc([C@H]4CC[C@H](CC(=O)O)CC4)cc3)cc2n1 [Example C-139, 2-((1r,4r)-4-(4-(2-methyl-4-(phenethylcarbamoyl)quinolin-7-yl)phenyl)cyclohexyl)acetic acid]	61 nM
C[C@@H]1CN(C(=O)Nc2ccccc2)c2ccc(-c3ccc([C@H]4CC[C@H](CC(=O)O)CC4)cc3)cc2O1 [B-18 enantiomer A, 2-((1r,4r)-4-(4-(2-methyl-4-(phenylcarbamoyl)-3,4-dihydro-2H-benzo[b][1,4]oxazin-7-yl)phenyl)cyclohexyl)acetic acid]	43 nM
CC1CN(C(=O)Nc2ccc(F)cc2C(F)(F)F)c2ccc(-c3ccc([C@H]4CC[C@H](CC(=O)O)CC4)cc3)cc2O1 (single isomer, unassigned) [C-78 enantiomer A, 2-((1r,4r)-4-(4-(4-(4-fluoro-2-(trifluoromethyl)phenylcarbamoyl)-2-methyl-3,4-dihydro-2H-benzo[b][1,4]oxazin-7-yl)phenyl)cyclohexyl)acetic acid]	79 nM
